According to US6797699B1, “Neuroprotective agents” (University of Southampton, priority 1997, dated 2004):
“Also recorded” adds a separate entry of the source. Marks after values point to notes of the source that are not given here.

Key:
[1] = system: CA1 pyramidal cell layer of organotypic hippocampal slice cultures; experiment: Hypoxic neuronal damage in organotypic hippocampal slice cultures (propidium iodide fluorescence); type: cell-based, Wistar rat
Description: Hypoxic neuronal damage was studied using organotypic hippocampal slice cultures [Pringle A. K. et al. (1996 Stroke 27 2124-2130)].
Cultures were prepared according to the method of Stoppini et al (1991 J. Neurosci. Meth. 37 173-182) from 8-10 day old Wistar rat pups (Bioresources Unit, University of Southampton). Cultures were maintained in vitro for 14 days (37° C., 5% CO2) during which the medium (50% minimum essential medium (MEM), 25% Hank's balanced salt solution (HBSS), 25% heat-inactivated horse serum, supplemented with 1 mM glutamine, 5 mg/ml glucose and 1.5% fungizone) was changed every 3 days. Hypoxia was induced by replacing culture medium with serum-free (SF) medium (75% MEM, 25% HBSS, 1 mM glutamine, 5 mg/ml glucose, 1.5% fungizone) saturated with 95% N2/5% CO2 (and thus oxygen-free), and placing cultures in an air-tight chamber in which the atmosphere was also saturated with N2/CO2. After 180 minutes hypoxia, cultures were replated in normoxic SF medium and replaced in the incubator for 24 hours. Compounds were added to cultures either pre-, during and post-hypoxia (herein abbreviated to “pdp”) or just in the post-hypoxic recovery period (“post”) [Johnson, T. D. (1996 Trends Pharmacol. Sci. 22-27)]. Cell damage was evaluated using the fluorescent exclusion dye propidium iodide (PI, 5 μg/ml) which is normally excluded from healthy cells, but enters cells with damaged plasma membranes and becomes highly fluorescent when bound to DNA. Neuronal cell damage was quantified using the “NIH Image 1.55” software (written by Wayne Rasband at the U.S. National Institutes for Health and available from the internet by anonymous ftp from zippy.nimh.nih.gov). Briefly, the area of the CA1, CA3 and dentate gyrus (DG) cell layers was measured from a transmission image. 24 hours after the commencement of hypoxia, a fluorescence image was captured using a standard Leica inverted fluorescence microscope fitted with a rhodamine filter set. The area of PI fluorescence above background in the neuronal cell layers was determined using the density slice function of Image. Cellular damage is expressed as the percentage area of the cell body layers in which PI fluorescence was detectable. After imaging, cultures were fixed overnight in 4% paraformaldehyde and stained with thionin.
Data are expressed as the mean±sem. Data from the non-drug groups was pooled before analysis. Statistical significance was determined using one-way analysis of variance (ANOVA) followed by post-hoc non-paired Student's t-tests. As only cells within the CA1 region were susceptible to hypoxia-induced damage, all of the pharmacological data was calculated for this region alone.
Table 1 represents the quantification of the percentage area of the CA1 pyramidal cell layer in which PI fluorescence was detectable 24 hours after 3 hours of hypoxia (% Damage CA1). Data from all of the cultures exposed to hypoxia alone were pooled (control hypoxia). The percentage neuroprotection was calculated as the (((% damage control hypoxia-% damage drug treated)/% damage control hypoxia) 100). Data are expressed as the mean±sem, n=number of cultures, *p<0.05, **<0.01, ***p<0.001 vs hypoxia control.

mice = conditions: FTX isolated from funnel-web spider toxin; Proc. Natl. Acad. Sci. USA 86, 1689-1693 (1989); cited from earlier work
[2] = Table 1, 300 μM added post-hypoxia, 3 h hypoxia, PI at 24 h, control hypoxia 35.6 ± 1.43, mean±sem
[3] = Table 1, 300 μM added post-hypoxia, vs control hypoxia

Compound | % Damage CA1 [1, 2] | % Protection [1, 3] | neuroprotective effect / reduction of PI fluorescence in CA1 (in words) ([1]; 300 μM added post-hypoxia) | further results
N1-D-Arginylspermidine [Compound Z^1] | 32.6 ± 4.1% | 8.4% | – | neuroprotective effect / reduction of PI fluorescence in CA1 (in words) ([1]; 300 μM added post-hypoxia, listed as D-ArgSp): did not result in any observable reduction of PI fluorescence; also recorded: inactive
NC(N)=NCCCC(N)C(=O)O [D-Arg, reference compound] | 32.7 ± 7.0% | 8.1% | – | –
NCCCCNCCCN [Spermidine, spermidine, reference compound] | 34.2 ± 5.4% | 3.9% | no neuroprotective effects; also recorded: no efficacy was detected | –
N^1-D-Ornithylspermidine [Compound Z^3] | 36.71 ± 3.2% | 0% | did not result in any observable reduction of PI fluorescence | –
NCCCCNCCCNC(=O)C(N)CCCN [C, N^1-L-Ornithylspermidine] | 30.6 ± 3.8% | 14.0% | also protective, although to a lesser extent | neuroprotective effect / reduction of PI fluorescence in CA1 (in words) ([1]; 300 μM added post-hypoxia, listed as L-OrnSp): less of a significant reduction in damage; also recorded: active
NCCCCNCCCNC(=O)C(N)CCCCN [B, N^1-L-Lysinylspermidine] | 27.0 ± 3.7* % | 24.2% | also protective, although to a lesser extent | neuroprotective effect / reduction of PI fluorescence in CA1 (in words) ([1]; 300 μM added post-hypoxia, listed as L-LysSp): small but significant reduction in PI fluorescence; also recorded: active
N^1-D-Lysinylspermidine [Compound Z^2] | 36.3 ± 3.5% | 0% | – | neuroprotective effect / reduction of PI fluorescence in CA1 (in words) ([1]; 300 μM added post-hypoxia, listed as D-LysSp): did not result in any observable reduction of PI fluorescence; also recorded: inactive
N=C(N)NCCCC(N)C(=O)NCCCNCCCN (stereo not drawn) [FTX] | – | – | – | toxicity to mice (in words) (mice): toxic to mice in extremely small doses
NCCCCNCCCNC(=O)C(N)CCCNC(N)=O (stereo not drawn) [Compound I] | – | – | significant protective effect | % Protection ([1]; Table 6, 300 μM post): 53%; % Damage CA1 ([1]; Table 6, 300 μM post, hypoxia control 23.2 ± 4.9): 10.9 ± 5.7* %
N=C(N)NCCC[C@H](N)C(=O)O [L-Arg, L-arginine, reference compound] | 38.5 ± 4.0% | 0% | no efficacy was detected | neuroprotective effect / reduction of PI fluorescence in CA1 (in words) ([1]; 300 μM added post-hypoxia, listed as L-arginine): Neither spermidine nor L-arginine individually produced a reduction in damage
